The subject of experiment [1] is A.D.P. induced blood-platelet aggregation. Put plainly: A.D.P. induced blood-platelet aggregation. It is filed as in vivo, Wistar rats. To be noted: Rattus norvegicus, po; 100 mg/kg orally, rats, 3 hours after treatment, 10 μM A.D.P. solution; read-out: Percent inhibition of blood-platelet aggregation, A.D.P. The procedure:
(§1) A blood sample is taken from the jugular vein of Wistar rats. From this citrated blood and after centifugation, a plasma is reconstituted which contains 600,000 ± 20,000 blood-platelets per ml, which plasma is then used in all aggregation determinations.
(§2) 0.4 ml plasma is placed in a siliconized tube provided with a magnet bar, also siliconized. The tube is introduced into an aggregometer connected to an apparatus which records optical density variations. When light transmission has attained a stable value, 0.5 ml of a solution containing 10 μM A.D.P. (adenosinediphosphate) is added to the tube.
(§3) Blood-platelet aggregation induces an increase of light transmission, followed by a decrease subsequent to the deaggregation phase.
(§4) Different groups of 20 rats each are used, each group being orally administered 100 mg/kg of a test derivative.

For experiment [2], the system named is Collagen-induced blood-platelet aggregation. Put plainly: Collagen-induced blood-platelet aggregation. It is filed as in vivo, Wistar rats. Particulars: Rattus norvegicus, po; 100 mg/kg orally, rats, 3 hours after treatment; read-out: Percent inhibition of blood-platelet aggregation, Collagen. As to the method: as §1, §2, §3
The A.D.P. solution is substituted with a collagen (bovine tendon extract) solution.
as §4

In experiment [3] the test system is rat globules (red corpuscles). Put plainly: In vitro anti-sludge activity, curative procedure (protamine sulfate). It is filed as cell-based. To be noted: 25 μg. As to the method:
(§5) Said activity was investigated in vitro and in vivo in rats.
(§6) Thrice washed rat globules are diluted to 1/250 in physiological saline. In each of 5 tubes are placed 0.6 ml of this suspension and 0.2 ml physiological saline. To each tube is then added 0-25-50-100 and 200 μg, respectively, of the test derivative contained in 0.2 ml solution. After incubation for one hour at 37° C., 0.2 ml of a solution containing 125 μg/ml protamine sulfate are added, after which the tube is then incubated again for 0.5 hour at 37° C. The globules of each tube are then examined with a Mallases cell, and the percent free globules and the percent aggregates formed by 2, 3, 4, 5 etc.. globules is then recorded.
The experiment was repeated according to a "curvative" procedure; the red corpuscles were first contacted with protamine sulfate and, after incubation for 0.5 hour, 0.2 ml containing 25 μg of test derivative were added thereto, which operation is followed by another incubation for one hour at 37° C. The results obtained are reported in Table III, in which the percent agglomerates as a function of size is indicated.

Experiment [4] relates to rat globules (red corpuscles). In words: In vitro anti-sludge activity, preventive treatment (protamine sulfate). The format is cell-based. The procedure:
as §5, §6

As a reminder, the inhibition is the drop in the measured response relative to a control, in per cent. Regarding `O=C(OCc1ccccc1)C1Cc2ccsc2CN1Cc1ccccc1` (centres unmarked) [Example 20, 5-Benzyloxycarbonyl-6-benzyl-4,5,6,7-tetrahydro-thieno[2,3-c]pyridine], the values for the inhibition at 100 mg/kg in experiment [1] and in experiment [2] were 60.4% and 91.5%, respectively.
For `O=C(OCc1ccccc1)[C@H]1[C@@H](O)c2ccsc2CN1Cc1ccccc1` (relative stereo) [Example 11, 4-Hydroxy-5-benzyloxycarbonyl-6-benzyl-4,5,6,7-tetrahydro-thieno[2,3-c]pyridine], the figures for the inhibition at 100 mg/kg in experiment [1] and in experiment [2] were 60.5% and 91.6%, respectively.
Regarding `O=C(OCc1ccccc1Cl)[C@H]1[C@@H](O)c2sccc2CN1Cc1ccccc1Cl` (relative stereo) [Example 8, 5-o-Chlorobenzyl-6-o-chlorobenzyloxycarbonyl-7-hydroxy-4,5,6,7-tetrahydro-thieno[3,2-c]pyridine], the inhibition at 100 mg/kg in experiment [1] was found to be 61.8%; in experiment [2] it was 90.4%.
For `COc1cc(COC(=O)C2Cc3sccc3CN2Cc2cc(OC)c(OC)c(OC)c2)cc(OC)c1OC` (centres unmarked) [Example 17, 5-(3,4,5-Trimethoxy-benzyl)-6-(3,4,5-trimethoxy-benzyl-oxycarbonyl)-4,5,6,7-tetrahydro-thieno[3,2-c]pyridine] the same measures were 61.2% and 92%.
For the compound `O=C(OCc1ccccc1)[C@H]1[C@@H](O)c2sccc2CN1Cc1ccccc1` (relative stereo) [Example 7, 5-Benzyl-6-benzyloxycarbonyl-7-hydroxy-4,5,6,7-tetrahydro-thieno[3,2-c]pyridine], in experiment [3], the “percent agglomerates, size 2” value is on record as 12%; the “percent agglomerates, size 3” value turned out to be 3%; the “percent agglomerates, size 4” value was found to be 1%; the “percent agglomerates, size 5” value is given as 0%. In addition, in experiment [3], the “percent agglomerates, size 6” value was 0%; the “percent agglomerates, size 7” value was found to be 0%; the “percent agglomerates, size 8” value turned out to be 0%; the “percent agglomerates, size 9” value came to 0%. In experiment [3], the “percent agglomerates, size 10” value came out at 0% and the “percent free red corpuscles (size of agglomerates 1)” value (from here on “percent free red corpuscles”) came out at 84%.
For `CCOC(=O)C1Cc2sccc2CN1C` (centres unmarked) [Example 28, 5-Methyl-6-ethoxycarbonyl-4,5,6,7-tetrahydro-thieno[3,2-c]pyridine], the inhibition at 100 mg/kg in experiment [1] turned out to be 60.8%; in experiment [2], 90.2%.
In the case of `O=C(O)C1Cc2sc(Cl)cc2CN1` (centres unmarked) [Example 4, 6-Carboxy-2-chloro-4,5,6,7-tetrahydro-thieno[3,2-c]pyridine], the inhibition at 100 mg/kg in experiment [1] is 63.1%; in experiment [2], 91.3%.
The corresponding values for `COC(=O)C1Cc2sc(Cl)cc2CN1Cc1ccccc1Cl` (centres unmarked) [Example 30, 2-Chloro-5-o.chlorobenzyl-6-methoxycarbonyl-4,5,6,7-tetrahydro-thieno[3,2-c]pyridine] are 62.4% and 93%.
The corresponding values for `O=C(OCc1ccccc1F)[C@H]1[C@@H](O)c2ccsc2CN1Cc1ccccc1F` (relative stereo) [Example 10, 4-Hydroxy-5-o-fluorobenzyloxycarbonyl-6-o-fluorobenzyl-4,5,6,7-tetrahydro-thieno[2,3-c]pyridine] are 62.2% and 92.1%.
As to `O=C(OCc1ccc([N+](=O)[O-])cc1)C1Cc2sccc2CN1Cc1ccc([N+](=O)[O-])cc1` (centres unmarked) [Example 15, 5-p-Nitrobenzyl-6-p-nitrobenzyloxycarbonyl-4,5,6,7-tetrahydro-thieno[3,2-c]pyridine], in experiment [3], the “percent agglomerates, size 2” value was determined as 11%; the “percent agglomerates, size 3” value is on record as 2%; the “percent agglomerates, size 4” value was 0%; the “percent agglomerates, size 5” value was found to be 0%. Besides, in experiment [3], the “percent agglomerates, size 6” value came to 0%; the “percent agglomerates, size 7” value is listed as 0%; the “percent agglomerates, size 8” value amounted to 0%; the “percent agglomerates, size 9” value worked out at 0%. Also, in experiment [3], the “percent agglomerates, size 10” value came out at 0% and the “percent free red corpuscles” value was 87%.
Regarding `CCOC(=O)C1Cc2sc(Cl)cc2CN1Cc1ccccc1` (centres unmarked) [Example 27, 2-Chloro-5-benzyl-6-ethoxycarbonyl-4,5,6,7-tetrahydro-thieno[3,2-c]pyridine], in experiment [4] (25 μg), the “percent agglomerates, size 2” value came out at 16%; the “percent agglomerates, size 3” value was determined as 17%; the “percent agglomerates, size 4” value worked out at 5%; the “percent agglomerates, size 5” value turned out to be 0%. In addition, in experiment [4] (25 μg), the “percent agglomerates, size 6” value is listed as 0%; the “percent agglomerates, size 7” value is reported as 0%; the “percent agglomerates, size 8” value is given as 0%; the “percent agglomerates, size 9” value was found to be 0%. Moreover, in experiment [4] (25 μg), the “percent agglomerates, size 10” value turned out to be 0%; the “percent agglomerates, size 11” value is 0%; the “percent agglomerates, size 12” value is given as 0%; the “percent agglomerates, size 13” value was 0%. For the same compound, the “percent free red corpuscles” value in experiment [4] (25 μg) came to 62%. In experiment [4] (50 μg), the “percent agglomerates, size 2” value is on record as 20%; the “percent agglomerates, size 3” value worked out at 10%; the “percent agglomerates, size 4” value was found to be 4%; the “percent agglomerates, size 5” value is recorded as 0%. In addition, in experiment [4] (50 μg), the “percent agglomerates, size 6” value is given as 0%; the “percent agglomerates, size 7” value came out at 0%; the “percent agglomerates, size 8” value is on record as 0%; the “percent agglomerates, size 9” value worked out at 0%. In experiment [4] (50 μg), the “percent agglomerates, size 10” value was 0%; the “percent agglomerates, size 11” value is 0%; the “percent agglomerates, size 12” value is given as 0%; the “percent agglomerates, size 13” value is listed as 0%. Besides, the “percent free red corpuscles” value in experiment [4] (50 μg) is 66%. Also, in experiment [4] (100 μg), the “percent agglomerates, size 2” value came to 15%; the “percent agglomerates, size 3” value was 7%; the “percent agglomerates, size 4” value amounted to 3%; the “percent agglomerates, size 5” value is 0%. In experiment [4] (100 μg), the “percent agglomerates, size 6” value came to 0%; the “percent agglomerates, size 7” value is listed as 0%; the “percent agglomerates, size 8” value was found to be 0%; the “percent agglomerates, size 9” value stood at 0%. Also, in experiment [4] (100 μg), the “percent agglomerates, size 10” value amounted to 0%; the “percent agglomerates, size 11” value was 0%; the “percent agglomerates, size 12” value turned out to be 0%; the “percent agglomerates, size 13” value was determined as 0%. Moreover, the “percent free red corpuscles” value in experiment [4] (100 μg) is 75%. Besides, in experiment [4] (200 μg), the “percent agglomerates, size 2” value is recorded as 9%; the “percent agglomerates, size 3” value amounted to 5%; the “percent agglomerates, size 4” value is 2%; the “percent agglomerates, size 5” value came to 0%. In addition, in experiment [4] (200 μg), the “percent agglomerates, size 6” value is on record as 0%; the “percent agglomerates, size 7” value was determined as 0%; the “percent agglomerates, size 8” value came out at 0%; the “percent agglomerates, size 9” value is reported as 0%. In experiment [4] (200 μg), the “percent agglomerates, size 10” value was 0%; the “percent agglomerates, size 11” value worked out at 0%; the “percent agglomerates, size 12” value is listed as 0%; the “percent agglomerates, size 13” value worked out at 0%. The “percent free red corpuscles” value in experiment [4] (200 μg) was 84%. Also, in experiment [3], the “percent agglomerates, size 2” value turned out to be 10%; the “percent agglomerates, size 3” value is recorded as 3%; the “percent agglomerates, size 4” value is 0%; the “percent agglomerates, size 5” value is 0%. Also, in experiment [3], the “percent agglomerates, size 6” value worked out at 0%; the “percent agglomerates, size 7” value is 0%; the “percent agglomerates, size 8” value worked out at 0%; the “percent agglomerates, size 9” value was found to be 0%. Moreover, in experiment [3], the “percent agglomerates, size 10” value is on record as 0% and the “percent free red corpuscles” value amounted to 87%.
In the case of `O=C(OCc1ccccc1)C1Cc2sccc2CN1Cc1ccccc1` (centres unmarked) [Example 12, 5-Benzyl-6-benzyloxycarbonyl-4,5,6,7-tetrahydro-thieno[3,2-c]pyridine], the inhibition at 100 mg/kg was 61.6% in experiment [1] and 90.8% in experiment [2].
For the compound `O=C(O)C1Cc2sc(Cl)cc2CN1Cc1ccccc1` (centres unmarked) [Example 26, 5-Benzyl-6-carboxy-2-chloro-4,5,6,7-tetrahydro-thieno[3,2-c]pyridine], in experiment [3], the “percent agglomerates, size 2” value turned out to be 12%; the “percent agglomerates, size 3” value is recorded as 2%; the “percent agglomerates, size 4” value is recorded as 0%; the “percent agglomerates, size 5” value is reported as 0%. In addition, in experiment [3], the “percent agglomerates, size 6” value turned out to be 0%; the “percent agglomerates, size 7” value is on record as 0%; the “percent agglomerates, size 8” value was 0%; the “percent agglomerates, size 9” value is given as 0%. In experiment [3], the “percent agglomerates, size 10” value is 0% and the “percent free red corpuscles” value turned out to be 86%.

Source of the values: patent US4147787A, “4,5,6,7-Tetrahydro-thieno[2,3-c]-and [3,2-c]-pyridines, and therapeutic compositions containing the same” (Parcor, priority 1977, dated 1979).
